Measured values as given in patent publication US20070167408A1, “NOVEL ALKYL PHOSPHOLIPID DERIVATIVES WITH REDUCED CYTOTOXICITY AND USES THEREOF” (ZENTARIS GmbH, priority 2005, published 2007).
Converted amounts (≈) assume the structure as drawn.

Tests used:
Candida albicans TS3 = assay: Anti-fungal broth microdilution (MIC), fungus F; format: cell-based; conditions: yeast protocol, more than 80% inhibition, 48 h
Method: (§1) Anti-fungal activity of selected compounds of the invention was assessed by means of anti-fungal susceptibility tests as follows.
(§2) The antifungal activities of the compounds of the invention against different fungi were measured according to standard broth microdilution methods of the US National Committee for Clinical Laboratory standards (NCCLS) for yeasts (NCCLS document M27-A, 1997) and filamentous fungi (NCCLS document M38-A, 2002).
(§3) Stock solutions of compounds of the invention were freshly prepared on the days of experiments equal to 1.28 mg/10 ml media. Serial dilutions were performed to achieve the following testing concentrations: 64 μg/ml, 32 μg/ml, 16 μg/ml, 8 μg/ml, 4 μg/ml, 2 μg/ml, 1 μg/ml, 0.5 μg/ml, 0.25 μg/ml and 0.125 μg/ml.
(§4) An inoculum of 10^6 CFU/ml of the fungi strain was prepared in the appropriate medium and transferred to test tubes for incubation.
(§5) The method is used to determine the minimum inhibitory concentrations (MIC) of drugs on fungi strains. […] For the filamentous fungi protocol, MIC determination took place after 48 to 72 h of culture at 35° C. and was defined at that concentration which produced more than 50% visible growth inhibition.

[1] = test system: Cryptococcus gattii ATCC 32608; assay: Anti-fungal broth microdilution (MIC), fungus J; format: cell-based; conditions: yeast protocol, more than 80% inhibition, 48 h
Method: as §1, §2, §3, §4, §5

[2] = test system: Candida parapsilosis ATCC 22019; assay: Anti-fungal broth microdilution (MIC), fungus G; format: cell-based; conditions: yeast protocol, more than 80% inhibition, 48 h
Method: as §1, §2, §3, §4, §5

[3] = test system: Trypanosoma cruzi (Tulahuan-LACZ amstigotes in PEM); assay: In vitro drug activity assay, protozoon A; format: cell-based; conditions: amastigotes in murine peritoneal macrophages, 3 days
Method: (§6) In vitro activity of selected compounds of the invention against different protozoa was assessed as follows.
Murine (CD1) peritoneal macrophages were harvested 24 hours after starch induction and dispensed into 96-well plates at a concentration of 4×10^5 mL. After 24 hours, the cells were infected with Trypanosoma cruzi Tulahuan LAC-Z amastigotes (grown and cultured according to Buckner et al., Infection and Immunity 1999, 67(1): 403-409). 24 hours later, the infected cells were exposed to the test compounds (compounds of the invention as well as known prior art compounds) for 3 days and 50 μL of 500 μM CPRG-1% Nonidet P-40 was added to each well. The plates were read after 2 to 5 hours at 570 nm (Buckner et al., Antimicrobial Agents and Chemotherapy 1996, 40(11): 2592-2597). ED50 values were calculated with Msxlfit (IDBS).
(§7) The following protozoa were assessed: • A) Trypanosoma cruzi (Tulahuan-LACZ amstigotes in PEM, Lorente S O et al., Antimicrobial agents and chemotherapy 2004, 48(8): 2937-2950; Buckner et al., Infection and Immunity 1999, 67(1): 403-409; Buckner et al., Antimicrobial Agents and Chemotherapy 1996, 40(11): 2592-2597) • B) Trypanosoma brucei rhodesiense (strain STIB900, Lorente S O et al., Antimicrobial agents and chemotherapy 2004, 48(8): 2937-2950; Habtemariam S, BMC Pharmacology 2003, 3:6) • C) Plasmodium falciparum (strain K1, Korsinczky M et al., Antimicrobial agents and chemotherapy 2000, 44(8): 2100-2108; Thaitong S and Beale G H, Trans. R. Soc. Trop. Med. Hyg. 1981, 75: 271-273; Trager W and Jensen J B, Science 1976, 193: 673-675) • D) Plasmodium faiciparum (strain 3D7, Mu et al., PLoS Biology 2005, 3(10): e335)

[4] = test system: Plasmodium falciparum (strain K1); assay: In vitro drug activity assay, protozoon C; format: cell-based; conditions: strain K1, 3[H]-hypoxanthine method
Method: as §6
(§8) Plasmodium falciparum strain K1 and strain 3D7 parasites were cultured according to Trager W and Jensen J B (Science 1976, 193: 673-675). In vitro drug susceptibility assays with the test compounds were carried out according to Korsinczky M et al. (Antimicrobial agents and chemotherapy 2000, 44(8): 2100-2108) and Fivelman Q L et al. (Antimicrobial agents and chemotherapy 2004, 48(11): 4097-4102) using a ^3[H]-hypoxanthine radioisotope method. ED50 values were calculated with Msxlfit (IDBS).
as §7

[5] = test system: Cryptococcus neoformans ATCC 90112; assay: Anti-fungal broth microdilution (MIC), fungus H; format: cell-based; conditions: yeast protocol, more than 80% inhibition, 48 h
Method: as §1, §2, §3, §4, §5

[6] = test system: Cryptococcus neoformans H99; assay: Anti-fungal broth microdilution (MIC), fungus I; format: cell-based; conditions: yeast protocol, more than 80% inhibition, 48 h
Method: as §1, §2, §3, §4, §5

[7] = test system: Candida albicans ATCC 90028; assay: Anti-fungal broth microdilution (MIC), fungus E; format: cell-based; conditions: yeast protocol, more than 80% inhibition, 48 h
Method: as §1, §2, §3, §4, §5

[8] = test system: Aspergillus fumigatus ATCC 204305; assay: Anti-fungal broth microdilution (MIC), fungus A; format: cell-based; conditions: Aspergillus fumigatus, ATCC204305; filamentous protocol, more than 50% growth inhibition, 48 to 72 h
Method: as §1, §2, §3, §4, §5

[9] = test system: Trypanosoma brucei rhodesiense (strain STIB900); assay: In vitro drug activity assay, protozoon B; format: cell-based; conditions: bloodstream form trypomastigotes, 72 hours, Alamar Blue
Method: as §6
Trypanosoma brucei rhodesiense STIB900 bloodstream form trypomastigotes were maintained in HMI-18 medium (Hirumi H, Hirumi K, J Parasitol. 1989, 75(6):985-989) with 15% heat-inactivated fetal calf serum at 37° C., 5% CO2, humidified atmosphere. Trypomastigotes were washed and resuspended in fresh medium at a concentration of 2×10^5 mL. Test compounds were given to the trypomastigotes and plates were incubated for 72 hours at 37° C., 5% CO2, humidified atmosphere. At 72 hours the plates were assessed microscopically before Alamar Blue was added (Raz et al., Acta Trop. 1997, 68: 139-147). Plates were read after 5 to 6 hours at EX/EM 530/585 nm with a filter cutoff at 550 nm. ED50 values were calculated with Msxlfit (IDBS).
as §7

[10] = test system: Aspergillus fumigatus 322-384; assay: Anti-fungal broth microdilution (MIC), fungus B; format: cell-based; conditions: Aspergillus fumigatus, 322384; filamentous protocol, more than 50% growth inhibition, 48 to 72 h
Method: as §1, §2, §3, §4, §5

[11] = test system: Candida albicans ATCC 10231; assay: Anti-fungal broth microdilution (MIC), fungus D; format: cell-based; conditions: yeast protocol, more than 80% inhibition, 48 h
Method: as §1, §2, §3, §4, §5

[12] = test system: Aspergillus fumigatus 040-200167; assay: Anti-fungal broth microdilution (MIC), fungus C; format: cell-based; conditions: Aspergillus fumigatus, 040200167; filamentous protocol, more than 50% growth inhibition, 48 to 72 h
Method: as §1, §2, §3, §4, §5

[13] = test system: Plasmodium faiciparum (strain 3D7); assay: In vitro drug activity assay, protozoon D; format: cell-based, Plasmodium falciparum; conditions: strain 3D7, 3[H]-hypoxanthine method
Method: as §6, §8, §7

[14] = test system: epimastigotes of Trypanosoma cruzi strain Y; assay: In vitro activity of miltefosine and benznidazole against epimastigotes; format: cell-based; conditions: 72 h
Method: In vitro activity of Miltefosine and Benznidazole in the course of a combination treatment against Trypanosoma cruzi strain Y was assessed compared to the respective single treatments with miltefosine or benznidazole alone.
Miltefosine and Benznidazol were tested in vitro in combination against epimastigote forms of Trypanosoma cruzi strain Y which were isolated from a chagasic patient in Sao Paulo, Brazil and obtained from Dr. Victor Nussenzweig (Silva, L H. and Nussenzweig, V.; Folia clin. biol., 20: 191-207, 1953). This T. cruzi Y strain can also be ordered at ATCC 50832, while the ATCC strain must be re-adapted by several passages through mice in order to regain the strain's original characteristics of differentiation and virulence.
Epimastigotes were axenially cultured in brain heart infusion medium (BHI, Becton, Dickinson, Cat. No. 221812) supplemented with 10 mg of hemin per liter and 5% heat inactivated fetal calf serum (FCS) at 28° C. with shaking (˜80 rpm) up to a maximum of 10-12 passages, before the cultures were aged to obtain metacyclics that were purified on a DE-52 column (Whatman DEAE cellulose ion exchange column, Waco, Cat. No. 17050-03 or 17050-04) and injected into mice. After 2-4 weeks parasites were recovered from blood and placed back into axenic culture.
Stock solutions of Miltefosine and Benznidazol in concentrations of 10 mg/ml and 20 mg/ml dissolved in methanol were used. Stock solutions were serially diluted with a factor of 2 in BHI-FCS medium. For Benznidazol the following testing concentrations were used: 80 μg/ml, 40 μg/ml, 20 μg/ml, 10 μg/ml, 5 μg/ml and 2.5 μg/ml. The testing concentrations for Miltefosine were 20 μg/ml, 10 μg/ml, 5 μg/ml, 2.5 μg/ml, 1.25 μg/ml and 0.625 μg/ml.
2×10^6 epimastigotes were incubated in BHI-FCS medium with Miltefosine and Benznidazol in a final volume of 200 μl. After 72 h incubation at 28° C., parasite growth was determined by direct counting the number of parasites with a Neubauer chamber. The 50% inhibitory concentrations were determined by linear regression analysis.

| SMILES | MIC (Candida albicans TS3) | MIC [1] | MIC [2] | ED50 (μg/mL), protozoon A [3] | ED50 (μg/mL), protozoon C [4] | MIC [5] | MIC [6] | MIC [7] | MIC [8] | ED50 (μg/mL), protozoon B [9] | MIC [10] | MIC [11] | MIC [12] | ED50 (μg/mL), protozoon D [13] | Epimastigotes [amount/mL] ([14]; benznidazole 5 ug/mL) | Epimastigotes [amount/mL] ([14]; benznidazole 10 ug/mL) | Epimastigotes [amount/mL] ([14]; benznidazole 40 ug/mL) |
| --- | --- | --- | --- | --- | --- | --- | --- | --- | --- | --- | --- | --- | --- | --- | --- | --- | --- |
| CCCCCCCCCCCCCCCCCCOP(=O)([O-])OC1CC[N+](CC)(CC)CC1 [Compound 5, Phosphoric acid 1,1-diethyl-piperidin-4-yl ester octadecyl ester] | 2 µg/mL (≈ 4.08 µM) | 0.75 µg/mL (≈ 1.53 µM) | 3 µg/mL (≈ 6.13 µM) | 1.43 µg/mL (≈ 2.92 µM) | 21.26 µg/mL (≈ 43.4 µM) | 1.5 µg/mL (≈ 3.06 µM) | 2 µg/mL (≈ 4.08 µM) | 2 µg/mL (≈ 4.08 µM) | 6 µg/mL (≈ 12.3 µM) | 14.20 µg/mL (≈ 29 µM) | 8 µg/mL (≈ 16.3 µM) | 2 µg/mL (≈ 4.08 µM) | 24 µg/mL (≈ 49 µM) | 16.31 µg/mL (≈ 33.3 µM) | – | – | – |
| O=C(Cn1ccnc1[N+](=O)[O-])NCc1ccccc1 [benznidazole, N-Benzyl-2-nitroimidazol-1-yl-acetamide] | – | – | – | 0.22 µg/mL (≈ 0.845 µM) | – | – | – | – | – | – | – | – | – | – | 455.833 amount/mL | 358.333 amount/mL | 190.000 amount/mL |
